According to PMC12095047, “Transport of phenoxyacetic acid herbicides by PIN-FORMED auxin transporters” (Nature Plants, 2025):
Several values for one entry are separate records, joined by “and”; a condition that tells them apart may be missing. Identical values can stand only once. Like-named read-outs stand apart in the source and are kept apart here.

Experiments:
[1] = molecular target: T1, PIN8 Y150F (Arabidopsis thaliana, UniProt Q9LFP6, Y150F); assay type: biochemical; settings: PIN8 Y150F, Michaelis–Menten fit
T1 construct: made in house
T1 sequence (Q9LFP6 whole entry Y150F): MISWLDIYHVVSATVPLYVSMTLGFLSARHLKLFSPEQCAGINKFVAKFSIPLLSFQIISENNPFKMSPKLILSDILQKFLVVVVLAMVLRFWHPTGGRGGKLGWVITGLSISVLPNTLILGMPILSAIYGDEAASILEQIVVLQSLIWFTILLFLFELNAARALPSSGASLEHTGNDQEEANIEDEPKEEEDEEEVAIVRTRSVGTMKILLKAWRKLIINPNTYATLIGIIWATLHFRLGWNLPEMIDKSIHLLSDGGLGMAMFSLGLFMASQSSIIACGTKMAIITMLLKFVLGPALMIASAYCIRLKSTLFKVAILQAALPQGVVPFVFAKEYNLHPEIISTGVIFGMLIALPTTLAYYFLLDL
Description: (§1) SSM, using a SURFE2R N1 from Nanion Technologies, was conducted as described. In brief, soy polar lipid mix (38% phosphatidyl choline, 30% phosphatidyl ethanolamine, 18% phosphatidyl inositol, 7% phosphatidic acid and 7% other soy lipids) and 1-palmitoyl-2-oleoyl-sn-glycero-3-phosphocholin were purchased from Avanti. Liposomes were prepared in Ringer solution without Ca^2+ (115 mM NaCl, 2.5 mM KCl, 1 mM NaHCO3, 10 mM HEPES pH7.4, 1 mM MgCl2) and homogenized using a Lipsofast (Avestin) with a […]. Triton X-100 was added to the liposomes to a final concentration of 1% (v/v). Protein was added to liposomes to a calculated lipid-to-protein ratio (LPR) of 10 unless stated otherwise. The detergent was removed using 400 mg ml^−1 Bio Beads (BioRad) overnight at 4 °C in a rotary shaker. Proteoliposomes were frozen in liquid nitrogen and kept at −80 °C until use. Proteoliposomes were diluted 1:5 in Ringer solution without Ca^2+, sonicated five times and then applied to the sensors by centrifugation (30 min, 3,000 g, 4 °C). Non-activating buffer was Ringer solution without Ca^2+ as described unless specified otherwise, and activating buffer contained the substrate of interest. In most instances we used a single-solution exchange experiment. In this case proteoliposomes, immobilized on the supported membrane, are kept in non-activating buffer as specified. At the beginning of the experiment the non-activating buffer is replaced with fresh identical non-activating buffer, and after 1 s, activating buffer (same buffer containing substrate) is added. After another second, the buffer is replaced with non-activating buffer again. Current response is recorded throughout the entire 3 s. For competition or inhibition, the respective compound was present in non-activating and activating solutions. Each experiment was performed on at least two individual sensors. On each sensor each measurement consists of three technical replicates where the mean is calculated. KD values were determined as described previously. Briefly, the binding current induced by 100 µM NPA was recorded in the presence of different concentrations of the substrate under investigation ranging between 0 µM and 1,000 µM present in the activating solution and the non-activating solution (Extended Data Fig. 5b). […] The maximum peak current was then plotted as a function of the concentration of the substrate under investigation and plotted against the degree of inhibition and fitted with a one-site binding model using GraphPad Prism V10.4.1 The half maximal concentration corresponds to the KD of the substrate under investigation.
(§2) The protocol for expression and purification of AtPIN8 protein (Uniprot: Q9LFP6) in lauryl maltose neopentyl glycol was described previously. All point mutants were generated using Q5 Site-Directed mutagenesis kit (New England Biolabs). The C-flat Holey Carbon grids (CF-1.2/1.3, Cu-300 mesh) were glow-discharged for 45 s at 15 mA in a GloQube Plus (Quorum). […] After 1 h of incubation on ice, the sample was centrifuged at 16,000 g for 15 min before blotting to remove precipitation. A drop of 4 µl of each sample was applied to the glow-discharged grids, blotted with a Vitrobot Mark IV (ThermoFisher Scientific) using the following settings (temperature 4 °C, 100% humidity, blot time of 4 s, blot force −1) and vitrified in liquid ethane.

[2] = molecular target: T2, PIN8 S146A (Arabidopsis thaliana, UniProt Q9LFP6, S146A); assay type: biochemical; settings: for Peak current: S146A, individual sensors
T2 construct: made in house
T2 sequence (Q9LFP6 whole entry S146A): as the sequence (Q9LFP6 whole entry Y150F) above, with S146A, F150Y counted along it
Description: as §1, §2

[3] = molecular target: T3, PIN8 Y150A (Arabidopsis thaliana, UniProt Q9LFP6, Y150A); assay type: biochemical; settings: for Peak current: Y150A, individual sensors
T3 construct: made in house
T3 sequence (Q9LFP6 whole entry Y150A): as the sequence (Q9LFP6 whole entry Y150F) above, with F150A counted along it
Description: as §1, §2

[4] = molecular target: T4, PIN8 S266A (Arabidopsis thaliana, UniProt Q9LFP6, S266A); assay type: biochemical; settings: PIN8 S266A, Michaelis–Menten fit
T4 construct: made in house
T4 sequence (Q9LFP6 whole entry S266A): as the sequence (Q9LFP6 whole entry Y150F) above, with F150Y, S266A counted along it
Description: as §1, §2

[5] = molecular target: T5, PIN8 N117A (Arabidopsis thaliana, UniProt Q9LFP6, N117A); test: SSM electrophysiology peak current, PIN8 N117A proteoliposomes; assay type: biochemical; settings: for Relative Peak Current of WT (%): Substrate 4-CPA, replicates
T5 construct: made in house
T5 sequence (Q9LFP6 whole entry N117A): as the sequence (Q9LFP6 whole entry Y150F) above, with N117A, F150Y counted along it
Description: as §1, §2

[6] = molecular target: T6, wild-type PIN8 proteoliposomes (Arabidopsis thaliana, UniProt Q9LFP6); test: SSM electrophysiology, peak width (FWHM) of current response at LPR10 and LPR50; assay type: biochemical; settings: for Rel. FWHM (% of LPR10): replicates
T6 construct: made in house
T6 sequence (Q9LFP6 1-367): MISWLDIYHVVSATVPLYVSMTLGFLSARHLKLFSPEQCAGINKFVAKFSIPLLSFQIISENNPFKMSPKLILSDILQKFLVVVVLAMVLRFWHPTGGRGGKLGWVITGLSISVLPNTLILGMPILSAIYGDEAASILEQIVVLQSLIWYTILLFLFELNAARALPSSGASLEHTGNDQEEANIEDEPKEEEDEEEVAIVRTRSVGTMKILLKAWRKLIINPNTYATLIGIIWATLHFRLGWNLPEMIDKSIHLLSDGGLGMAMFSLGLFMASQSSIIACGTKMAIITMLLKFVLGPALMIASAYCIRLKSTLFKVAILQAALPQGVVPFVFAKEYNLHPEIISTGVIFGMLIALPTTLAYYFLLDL
Description: as §1

[7] = molecular target: T7, PIN8 (Arabidopsis thaliana, UniProt Q9LFP6); test: SSM electrophysiology, KD by inhibition of the NPA binding current
T7 construct: made in house
T7 sequence (Q9LFP6 1-367): T6 sequence (Q9LFP6 1-367)
Description: as §1

[8] = molecular target: T8, A. thaliana PIN8 (Arabidopsis thaliana, UniProt Q9LFP6); test: SSM electrophysiology, peak current response on PIN8 proteoliposomes; assay type: biochemical; settings: for Peak current: individual sensors
T8 construct: made in house
T8 sequence (Q9LFP6 1-367): T6 sequence (Q9LFP6 1-367)
Description: as §1

[9] = read-out: EC50 of peak current response
[10] = WT PIN8 proteoliposomes, Michaelis–Menten fit

O=C(O)COc1ccc(Cl)cc1 [4-CPA, 4-chlorophenoxyacetic acid]
Imax [1]: 5 ± 0.9 nA
EC50 [1, 9]: 710 ± 228 µM
Imax ([2]; PIN8 S146A, Michaelis–Menten fit): 8 ± 2 nA
Peak current ([2]; 5 µM substrate): 0.16 nA and 0.306 nA and 0.183 nA and 0.211 nA
Peak current ([2]; 20 µM substrate): 0.62 nA and 0.288 nA and 0.616 nA
Peak current ([2]; 50 µM substrate): 1.139 nA and 1.066 nA and 1.161 nA and 1.319 nA
Peak current ([2]; 100 µM substrate): 1.866 nA and 1.352 nA and 1.859 nA and 2.228 nA
Peak current ([2]; 500 µM substrate): 4.245 nA and 2.76 nA and 4.229 nA and 5.107 nA
Peak current ([2]; 1000 µM substrate): 5.47 nA and 3.518 nA and 5.371 nA and 6.513 nA
Peak current ([2]; 2000 µM substrate): 6.809 nA and 4.912 nA and 6.602 nA and 8.134 nA
Imax ([3]; PIN8 Y150A, Michaelis–Menten fit): 5 ± 0.4 nA
EC50 ([3]; PIN8 Y150A, Michaelis–Menten fit, read-out: EC50 of peak current response): 2620 ± 263 µM
Peak current ([3]; 5 µM substrate): 0.004001 nA and 0.000964 nA and 0.005187 nA and 0.01098 nA
Peak current ([3]; 20 µM substrate): 0.001883 nA and 0.005268 nA and 0.002512 nA and 0.004292 nA
Peak current ([3]; 50 µM substrate): 0.02123 nA and 0.03866 nA and 0.02734 nA and 0.07514 nA
Peak current ([3]; 100 µM substrate): 0.1072 nA and 0.1421 nA and 0.1118 nA and 0.1489 nA
Peak current ([3]; 500 µM substrate): 0.7863 nA and 0.8129 nA and 0.8214 nA and 0.8974 nA
Peak current ([3]; 1000 µM substrate): 1.36 nA and 1.41 nA and 1.338 nA and 1.516 nA
Peak current ([3]; 2000 µM substrate): 2.1396 nA and 2.167 nA and 2.059 nA and 2.335 nA
Imax [4]: 7 ± 2 nA
EC50 [4, 9]: 2100 ± 290 µM
current response / function of PIN8 N117A ([5]; N117A mutation): abolishes the current response
Relative Peak Current of WT (%) ([5]; 100µM): 1.438% and 7.087% and 13.2919% and 50.142%
Relative Peak Current of WT (%) ([5]; 2mM): 17.5134% and 20.2019% and 18.4651% and 19.2453%
Rel. FWHM (% of LPR10) ([6]; LPR10): 1.033 % of LPR10 and 0.9836 % of LPR10 (2×)
peak width of SSM-based current response as a function of lipid-to-protein ratio (LPR) ([6]; LPR10 versus LPR50): vary with lipid-to-protein ratio (LPR)
Rel. FWHM (% of LPR10) ([6]; LPR50): 1.475 % of LPR10 (2×) and 1.328 % of LPR10 and 1.377 % of LPR10
inhibition at 5 µM ([7]; 5 µM substrate, 100 µM NPA, individual sensors, read-out: Rel. Inhibition of NPA peak currents): 3.03%
inhibition at 20 µM ([7]; 20 µM substrate, 100 µM NPA, individual sensors, read-out: Rel. Inhibition of NPA peak currents): 9.7%
inhibition at 50 µM ([7]; 50 µM substrate, 100 µM NPA, individual sensors, read-out: Rel. Inhibition of NPA peak currents): 16%
inhibition at 100 µM ([7]; 100 µM substrate, 100 µM NPA, individual sensors, read-out: Rel. Inhibition of NPA peak currents): 24.7%
inhibition at 500 µM ([7]; 500 µM substrate, 100 µM NPA, individual sensors, read-out: Rel. Inhibition of NPA peak currents): 58.6%
inhibition at 1000 µM ([7]; 1000 µM substrate, 100 µM NPA, individual sensors, read-out: Rel. Inhibition of NPA peak currents): 73.5%
inhibition at 2000 µM ([7]; 2000 µM substrate, 100 µM NPA, individual sensors, read-out: Rel. Inhibition of NPA peak currents): 82.1%
inhibition at 5000 µM ([7]; 5000 µM substrate, 100 µM NPA, individual sensors, read-out: Rel. Inhibition of NPA peak currents): 96.6%
lower binding affinity compared to IAA ([7]; KD compared to IAA): ~ 8 fold
Kd ([7]; Peak current, sheet F2A (Fig. 2a, KD of substrate binding), individual sensors): 319 µM and 330 µM and 262 µM
Peak current ([8]; 2 mM 4-CPA, absence of NPA): 6.735 nA and 9.149 nA
Peak current ([8]; 2 mM 4-CPA, presence of 20 µM NPA): 3.357 nA
EC50 [8, 10]: 800 ± 200 µM
maximal current Imax [8, 10]: 12 ± 2 nA
Peak current ([8]; WT, 5 µM substrate): 0.07132 nA and 0.09263 nA and 0.01805 nA
Peak current ([8]; WT, 20 µM substrate): 0.2459 nA and 0.3985 nA and 0.3482 nA
Peak current ([8]; WT, 50 µM substrate): 0.634 nA and 0.9337 nA and 0.8708 nA
Peak current ([8]; WT, 100 µM substrate): 1.233 nA and 1.738 nA and 1.591 nA
Peak current ([8]; WT, 500 µM substrate): 3.698 nA and 5.58 nA and 4.779 nA
Peak current ([8]; WT, 1000 µM substrate): 5.355 nA and 8.269 nA and 6.9634 nA
Peak current ([8]; WT, 2000 µM substrate): 7.157 nA and 9.571 nA and 9.556 nA
